Consider three compounds from article PMC4957748, “Development of Novel Erythromycin Derivatives with Inhibitory Activity against Proliferation of Tumor Cells” (PLoS ONE, 2016).

Assay [1] has as its system Hela cells. Kind of assay: Flow cytometry cell cycle analysis (PI), Hela. The format is cell-based, human. Particulars: 1b 24 h. The protocol: (§1) To understand the mechanism driving the antiproliferative activity of the prepared compounds, we analyzed using flow cytometry the cell cycles of Hela and MCF-7 treated for 24h with the selected active compound 1b at 0.5, 1.0 and 2.0μM concentrations (Fig 2B). […] The percentage of apoptotic cells depended on the concentration of 1b.
(§2) Cells were dispensed in 25 ml culture bottle at a density of 5 ×10^5 per bottle. After 24 h incubation, they were treated with compound 1b at given concentrations for 24h. The cells were harvested by 0.05% trypsin (Sigma, St. Louis, MO), then collected by centrifugation, washed with PBS, and fixed with 10 ml ice-cold 70% ethanol at 4°C overnight. After washed with PBS, the cells were suspended in 1ml propidium iodide (PI; 50 mg/L; Sigma, St. Louis, MO) solution supplemented with 1 g/L RNase A (Sigma, St. Louis, MO). Finally, the samples were analyzed by FACScan flow cytometer (Becton Dickinson, Franklin, NJ, USA).
(A flow cytometer gives signals particle by particle.)

The test system of assay [2] is MCF-7 cells. Briefly: Flow cytometry cell cycle analysis (PI), MCF-7. The class given is cell-based, human. Particulars: MCF-7, 1b 24 h. The method, then: as §1, §2
The subject of assay [3] is Hela cells. Briefly: Annexin V-FITC/PI apoptosis analysis, Hela. The format is cell-based, human. The conditions noted are these: 2.5 μM, 24 h (control 4.68%). The protocol: (§3) The majority of cells (Hela, 88.44% and MCF-7 89.30%) in the control samples were viable and non-apoptotic. […] In addition, an increase in the Annexin V+PI+ population was also observed which indicates late apoptotic or dead cells.
(§4) Cell apoptosis was determined using AnnexinV-FITC/PI Assay Kit according to the manufacturers’ protocols. Briefly, cells were seeded in 6-well plates at a density of 1.2×10^5 (MCF-7) or 1.5×10^5 (HeLa) per well and incubated for 24 h. Then, cells were treated with 0, 0.5, 1.5 or 2.5 μM 1b for 24h. After washed with PBS twice, cells were re-suspended in 100 μL binding buffer containing 5 μL AnnexinV-FITC and 5 μL PI. Following 10 min of incubation, cells were detected by FACScan flow cytometer.

Assay [4] has as its system MCF-7 cells. Briefly: Annexin V-FITC/PI apoptosis analysis, MCF-7. The format is cell-based, human. Particulars: MCF-7, 2.5 μM, 24 h (control 3.28%). The protocol:
as §3, §4

Assay [5] concerns Hela cells. Kind of assay: Mitochondrial potential assay (Rhodamine 123), HeLa. The format is cell-based, human. The conditions noted are these: 24 h. The protocol:
Mitochondria play a key role in the process of apoptosis. After treatment with 1b for 24h and stained with Rhodamine 123, the mitochondrial membrane potential (Δψm) changes in HeLa and MCF-7 cells were observed by flow cytometer.
Cells were seeded in 6-well plates at a density of 0.8×10^5 (MCF-7) or 1.0×10^5 (HeLa) per well. After 24 h of incubation, cells were treated with 0, 0.5, 1.5 or 2.5 μM 1b for another 24h. Subsequently, cells were washed with PBS twice, incubated with 1 μg/mL Rhodamine 123 in 1 mL PBS at 37°C for 30 min, and analyzed by FACScan flow cytometer.

Assay [6] has as its system Bax, Bcl-2, cyt c, Caspase-3 in HeLa cells. Briefly: Western blot analysis of apoptotic proteins, HeLa. The class given is cell-based, human. Particulars: 24 h. The method, then:
(§5) Bax and Bcl-2 proteins are two key apoptosis regulators of Bcl-2 family that govern mitochondrial outer membrane permeabilization (MOMP). To investigate the effects of 1b on Bax and Bcl-2 expressions and its association with cell apoptosis and proliferation, HeLa and MCF-7 cells were treated with different concentration of 1b for 24h before western blot analysis (Fig 6). […] Treatment with 1b led to Δψm depolarization, MOMP enhancing and pro-apoptotic proteins release.
(§6) Cytochrome complex (cyt c) and Caspase-3 play important roles in the process of cell apoptosis. In our case, the effects of 1b on the expression of cyt c and Caspase-3 were examined by treatment of HeLa and MCF-7 cells with different concentration of 1b. […] Treatment with 1b promoted the translocation of cyt c from the mitochondria to cytoplasm. In addition, the amount of 17 kDa cleaved Caspase-3 increased, accompanying with the reducing of zymogen.
(§7) Cells were seeded in 75 mL culture flask at a density of 8 ×10^5 (MCF-7) or 1.2×10^6 (HeLa) and incubated for 24 h. Thereafter, cells were treated with 0, 0.5, 1.5 or 2.5 μM 1b for 24h and harvested by trypsin into the EP tubes.
(§8) For total protein extraction, the cell pellets were lysed in RIPA buffer (Beyotime) supplemented with PMSF on ice for 30 min. After centrifuging at 12000 g for 10 min at 4°C, the cell suspension was collected as the whole cell protein. Cytoplasmic proteins and mitochondrial proteins were extracted from cells using Cell Mitochondria Isolation Kit according to the instructions of manufacturer. The protein concentrations were quantified with BCA Protein Assay Kit (Beyotime) and a plate reader according to the manufacturer’s protocols.
(§9) For western blot analysis, equal protein lysates were separated by electrophoresis on 12% SDS-PAGE gels, and transferred onto PVDF membranes. After blocking with 5% non-fat milk in PBS for 2.5 h at room temperature, the membranes were incubated with primary antibody overnight at 4°C: Bax (1:2000), Bcl-2 (1:1000), Caspase-3 (1:500), Cytochrome c (1:500), and β-actin (1:3000). Then, the blots were washed three times for 10 min each in Tris-NaCl and incubated with secondary HRP-conjugated goat anti-mouse or anti-rabbit IgGs (1:6000 or 1:5000) for 2.5 h at 37°C. The interest proteins were visualized using ECL, and β-actin served as the internal control.
In general terms: Immunoblotting shows a protein as a band on a membrane.

Assay [7] deals with Bax, Bcl-2, cyt c, Caspase-3 in MCF-7 cells. Kind of assay: Western blot analysis of apoptotic proteins, MCF-7. The class given is cell-based, human. Particulars: 24 h. The method, then: as §5, §6, §7, §8, §9
In assay [8] the test system is gastric adenocarcinoma (SGC-7901) cells. Briefly: MTT antiproliferative assay, SGC-7901. Particulars: Homo sapiens, SGC-7901, 24 h of drug exposure, mean±SD of 3 experiments. The class given is cell-based, human. The protocol:
(§10) In vitro antiproliferative activity against three human tumor cell lines, including gastric adenocarcinoma (SGC-7901), oral carcinoma (KB) and fibrosarcoma (HT-1080), was evaluated using the MTT assay with cis-platinum (Cpt) as the positive control.
(§11) The antiproliferative activity of the synthetic compounds was measured by 3-(4, 5- dimethylthiazol-2-yl)-2, 5-diphenyltetrazolium bromide (MTT) assay. Cells were seeded in 96-well plates (Corning, NY, USA) at a density of 8×10^3 per well. After 24 h of incubation, cells were treated with different concentrations (0.1, 0.3, 1, 3 and 10 μg/ml) of the EM-A dimers for the indicated time periods. Afterwards, MTT (Sigma, St. Louis, MO) solution [5.0 mg/ml in phosphate-buffered saline (PBS)] was added (20 μl/well) and incubated for another 4 h at 37°C. The purple formazan crystals were then dissolved in 100 μl dimethyl sulfoxide (DMSO). After 5 min, the plates were read on a plate microreader (TECANSPECTRA, Wetzlar, Germanay) at 490 nm. The IC50 values were obtained using the software of Dose–Effect Analysis with Microcomputers and were defined as concentration of drug causing 50% inhibition in absorbance compared with control cells. Assays were performed in triplicate from three independent experiments.

In assay [9] the test system is oral carcinoma (KB) cells. Kind of assay: MTT antiproliferative assay, KB. The format is cell-based, human. Particulars: Homo sapiens, KB, 24 h of drug exposure, mean±SD of 3 experiments. The method, then:
as §10, §11
In general terms: Tetrazolium dyes change colour on reduction, which living cells bring about.

Assay [10] concerns fibrosarcoma (HT-1080) cells. Kind of assay: MTT antiproliferative assay, HT-1080. The format is cell-based, human. Particulars: Homo sapiens, HT-1080, 24 h of drug exposure, mean±SD of 3 experiments. The method, then:
as §10, §11

The test system of assay [11] is normal mouse fibroblast cells (L929). Briefly: MTT assay, toxicity against normal fibroblasts L929. The format is cell-based. Particulars: L929, 24 h of drug exposure. The protocol:
as §11

Where [12] appears, read: HeLa, 0.5, 1.5, 2.5 μM, vs control, dose-dependent, P<0.01.
The mark [13] stands for this setting: MCF-7, 0.5, 1.5, 2.5 μM, vs control, dose-dependent, P<0.01.

Structures are written as SMILES.

Regarding `CCC1OC(=O)C(C)C(OC2CC(C)(OC)C(O)C(C)O2)C(C)C(OC2OC(C)CC(N(C)CC=CCN(C)C3CC(C)OC(OC4C(C)C(OC5CC(C)(OC)C(O)C(C)O5)C(C)C(=O)OC(CC)C(C)(O)C(O)C(C)C(=O)C(C)CC4(C)OC)C3O)C2O)C(C)(OC)CC(C)C(=O)C(C)C(O)C1(C)O` (stereo not drawn) [Compound 1b], the “percentage of SubG1 peaks” value in the assay with Hela cells [1] (highest concentration (control 2.28%)) is on record as 20.06%; in the assay with MCF-7 cells [2] (highest concentration (control 3.62%)) it was 22.51%. The “percentage of G0/G1 peaks” value in the assay on Hela cells [1] (highest concentration (control 55%)) is listed as 35%; with MCF-7 cells [2] (highest concentration (control 61%)), 45%. Besides, the “early apoptotic cell population (lower right)” value was 30.30% in the assay on Hela cells [3] and 54.84% in the assay on MCF-7 cells [4]. Besides, the “mitochondrial membrane potential (Rhodamine 123)” value is listed as 74.17% with Hela cells [5] (0.5 μM) and 1.00% in the assay with Hela cells [5] (2.5 μM). Moreover, the BCL-2 expression result in assay [6] (setting [12]) and in [7] (setting [13]) was “decreased” each time. Also, the Bax expression result in assay [6] (setting [12]) and in assay [7] (setting [13]) was “significantly increased” each time. For the same compound, the “amount of 17 kDa cleaved Caspase-3” value is “increased” in assay [6] (HeLa, 0.5 to 2.5 μM) and “increased” in [7] (MCF-7, 0.5 to 2.5 μM). For the same compound, the “expression of cyt c in the cytoplasm” value is “increased” in assay [6] (HeLa, concentration increased from 0.5 to 2.5 μM) and “increased” in assay [7] (MCF-7, concentration increased from 0.5 to 2.5 μM).

`CC[C@H]1OC(=O)[C@H](C)[C@@H](O[C@H]2C[C@@](C)(OC)[C@@H](O)[C@H](C)O2)[C@H](C)[C@@H](O[C@@H]2O[C@H](C)C[C@H](N(C)C)[C@H]2O)[C@](C)(OC)C[C@@H](C)C(=O)[C@H](C)[C@@H](O)[C@]1(C)O` [clarithromycin, reference compound]: the IC50 in [8], in assay [9], in assay [10] and in assay [11] was above 100 µM throughout.

As to `CCC1OC(=O)C(C)C(O)C(C)C(OC2OC(C)CC(N(C)CC=CCN(C)C3CC(C)OC(OC4C(C)C(OC5CC(C)(OC)C(O)C(C)O5)C(C)C(=O)OC(CC)C(C)(O)C(O)C(C)C(=O)C(C)CC4(C)OC)C3O)C2O)C(C)(OC)CC(C)C(=O)C(C)C(O)C1(C)O` (stereo not drawn) [Compound 1i], the IC50 in assay [8] was 27.1 ± 2.2 µM; in assay [9], 3.1 ± 0.3 µM; in assay [10], 11.9 ± 0.8 µM; in assay [11], above 100 µM.

As a reminder, the IC50 is the concentration at which inhibition is half-maximal. High values mean weaker potency in that assay, low ones greater potency in that assay.
